Earlier results, collected in US20190083428A1, “SALT BALANCED VAGINAL PRODUCT AND METHOD” (Good Clean Love, Inc., priority 2014, published 2019).

What was measured:
[1] = hyperosmolal concentrations
HSV-2 = details: after a single exposure

susceptibility to HSV-2 (HSV-2) | Compound | toxicity [1] | toxicity to lactobacilli (lactobacilli)
– | OCC(O)CO [glycerol] | obvious toxicity | –
markedly increased susceptibility | CC(O)CO (stereo not shown) [propylene glycol] | obvious toxicity | –
– | nonoxynol-9 [Example N9] | – | toxic
